We go through eleven molecules from patent US11578087B2, “Oxaborole esters and uses thereof” (priority 2016, dated 2023).

SMILES strings stand for the structures.

Broadly, the IC50 is the midpoint of a concentration-inhibition curve.

For assay [1], the system named is IL3000 T. congolense (drug sensitive) strain. As to the kind of experiment: In vitro Alamar Blue 72 h drug sensitivity assay for T. congolense. The assay is classed as cell-based, Trypanosoma congolense. Conditions: Trypanosoma congolense, 72 h, bloodstream form, 69 h + 3 h Resazurin, 34° C., read-out: IC50: I Org. Growth T. congolense 3 d. In short, it runs like this:
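IC50 values derive from 11-point curves averaged over at least three independent runs, with fluorescence read at 536 nm excitation and 588 nm emission. Resazurin was added for a final 3 h after 69 h compound exposure of bloodstream forms (HMI medium, 20% bovine serum, 34° C, 5% CO2).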

Assay [2] deals with T. cruzi amastigote (Td Tomato-modified) in Vero cells. Description: In vitro IC50 measurement of T. cruzi amastigote killing using Td Tomato-modified T. cruzi. The assay is classed as cell-based. Conditions: Trypanosoma cruzi, 72 h, fluorescence, read-out: IC50: I Org. amastigote Growth T. cruzi 3 d. The method in brief: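 IC50/IC90 came from nonlinear regression of Day 3 minus Day 0 fluorescence (544/612 nm), correcting for input parasites. Final compound concentrations spanned 5 nM–5 uM on Td Tomato T. cruzi-infected Vero cells, 72 h at 37 °C.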

`Cc1c(C(=O)N[C@H](C(=O)OCC2(F)CCOCC2)C(C)C)ccc2c1B(O)OC2` [Example 6-226, (4-fluorotetrahydro-2H-pyran-4-yl)methyl (1-hydroxy-7-methyl-1,3-dihydrobenzo[c][1,2]oxaborole-6-carbonyl)-L-valinate]: the results for the IC50 in assay [1] and in assay [2] were < 0.5 nM and ≤ 20 nM, respectively.
On to `Cc1c(C(=O)N[C@H](C(=O)OCCN2CCCC2)C(C)C)ccc2c1B(O)OC2` [Example 6-095, 2-(Pyrrolidin-1-yl)ethyl (1-hydroxy-7-methyl-1,3-dihydrobenzo[c][1,2]oxaborole-6-carbonyl)-L-valinate], for which the IC50 in assay [1] was 0.51 to 9.99 nM; in assay [2], ≥ 1000 nM.
The corresponding values for `Cc1c(C(=O)N[C@H](C(=O)OCc2ccc(F)c(F)c2)C(C)C)ccc2c1B(O)OC2` [Example 6-166, 3,4-Difluorobenzyl (1-hydroxy-7-methyl-1,3-dihydrobenzo[c][1,2]oxaborole-6-carbonyl)-L-valinate] are < 0.5 nM and ≤ 20 nM.
Turning to `Cc1c(C(=O)N[C@H](C(=O)OCc2ccc(S(=O)(=O)N3CCOCC3)cc2)C(C)C)ccc2c1B(O)OC2` [Example 6-086, 4-(Morpholinosulfonyl)benzyl (1-hydroxy-7-methyl-1,3-dihydrobenzo[c][1,2]oxaborole-6-carbonyl)-L-valinate], the values for the IC50 in assay [1] and in assay [2] were < 0.5 nM and 21 to 999 nM, respectively.
Consider `Cc1c(C(=O)N[C@H](C(=O)OCc2cccc(CN3CCN(C)CC3)c2)C(C)C)ccc2c1B(O)OC2` [Example 6-082, 3-((4-Methylpiperazin-1-yl)methyl)benzyl (1-hydroxy-7-methyl-1,3-dihydrobenzo[c][1,2]oxaborole-6-carbonyl)-L-valinate], for which the values for the IC50 in assay [1] and in assay [2] were 0.51 to 9.99 nM and 21 to 999 nM, respectively.
On to `Cc1c(C(=O)N[C@H](C(=O)OCCc2ccccn2)C(C)C)ccc2c1B(O)OC2` [Example 6-173, 2-(Pyridin-2-yl)ethyl (1-hydroxy-7-methyl-1,3-dihydrobenzo[c][1,2]oxaborole-6-carbonyl)-L-valinate], for which the IC50 in assay [1] was < 0.5 nM; in assay [2] it was ≤ 20 nM.
Take `Cc1c(C(=O)N[C@H](C(=O)O[C@@H]2CCOC2)C(C)C)ccc2c1B(O)OC2` [Example 6-141, (R)-Tetrahydrofuran-3-yl (1-hydroxy-7-methyl-1,3-dihydrobenzo[c][1,2]oxaborole-6-carbonyl)-L-valinate]: the IC50 in assay [1] is < 0.5 nM; in assay [2], 21 to 999 nM.
The corresponding values for `CC(C)[C@H](NC(=O)c1ccc2c(c1F)B(O)OC2)C(=O)OCc1ccc(F)cc1` [Example 6-036, 4-Fluorobenzyl (7-fluoro-1-hydroxy-1,3-dihydrobenzo[c][1,2]oxaborole-6-carbonyl)-L-valinate] are 10 to 5000 nM and 21 to 999 nM.
For `Cc1c(C(=O)N[C@H](C(=O)OCc2ccc(Cl)c(OCCN3CCOCC3)c2)C(C)C)ccc2c1B(O)OC2` [Example 6-167, 4-Chloro-3-(2-morpholinoethoxy)benzyl (1-hydroxy-7-methyl-1,3-dihydrobenzo[c][1,2]oxaborole-6-carbonyl)-L-valinate], the IC50 was < 0.5 nM in assay [1] and ≤ 20 nM in assay [2].
Consider `Cc1c(C(=O)N[C@H](C(=O)OCc2ccc(C#N)cn2)C(C)C)ccc2c1B(O)OC2` [Example 6-200, (5-cyanopyridin-2-yl)methyl (1-hydroxy-7-methyl-1,3-dihydrobenzo[c][1,2]oxaborole-6-carbonyl)-L-valinate], for which the concentration for half-maximal inhibition (IC50) was < 0.5 nM in assay [1] and ≤ 20 nM in assay [2].
In the same order, the values of `Cc1c(C(=O)N[C@H](C(=O)OCc2ccc(F)cc2)C(C)C)ccc2c1B(O)OC2C` (stereo partly drawn) [Example 6-061, 4-Fluorobenzyl (3,7-dimethyl-1-hydroxy-1,3-dihydrobenzo[c][1,2]oxaborole-6-carbonyl)-L-valinate] are 0.51 to 9.99 nM and 21 to 999 nM.
